Source: patent US8658675B2, “Pyridin-4-yl derivatives” (Actelion Pharmaceuticals Ltd., priority 2009, dated 2014)

Experiments:
human S1P1 receptor = human S1P1 receptor (Homo sapiens, UniProt P21453); test: GTPγS assay to determine EC50 values; assay type: biochemical; details: membranes of CHO cells expressing recombinant human S1P1 receptor; 35S-GTPγS binding
Description: GTPγS binding assays are performed in 96 well microtiter plates (Nunc, 442587) in a final volume of 200 μl, using membrane preparations of CHO cells expressing recombinant human S1P1 receptor. Assay conditions are 20 mM Hepes (Fluka, 54461), 100 mM NaCl (Fluka, 71378), 5 mM MgCl2 (Fluka, 63064), 0.1% BSA (Calbiochem, 126609), 1 μM GDP (Sigma, G-7127), 2.5% DMSO (Fluka, 41644), […] ^35S-GTPγS (Amersham Biosciences, SJ1320). The pH is 7.4. Test compounds are dissolved and diluted in 100% DMSO and pre-incubated at room temperature for 30 min in 150 μl of the above assay buffer, in the absence of ^35S-GTPγS. After addition of 50 μl of ^35S-GTPγS, the assay is incubated for 1 h at rt. The assay is terminated by transfer of the reaction mixture to a Multiscreen plate (Millipore, MAHFC1H60) using a cell harvester from Packard Biosciences, and the plates are washed with ice-cold 10 mM Na2HPO4/NaH2PO4 (70%/30%), dried, sealed at the bottom and, after addition of 25 μl MicroScint20 (Packard Biosciences, order#6013621), sealed on the top. Membrane-bound ^35S-GTPγS is measured with a TopCount from Packard Biosciences.
EC50 is the concentration of agonist inducing 50% of the maximal specific ^35S-GTPγS binding. Specific binding is determined by subtracting non-specific binding from maximal binding. Maximal binding is the amount of cpm bound to the Multiscreen plate in the presence of 10 μM of S1P. Non-specific binding is the amount of binding in the absence of an agonist in the assay.
Agonistic activities (EC50 values) of all exemplified compounds have been measured.

rat trachea rings = test: Measurement of isometric force development: rat trachea ring constriction; design: species or system Female Wistar rats; details: for potential to constrict rat trachea rings (comparison in words): compared to closest prior art analogues of WO 2008/029371 or to Example 2; for % trachea constriction at 1 μM: compound at 1 μM, in % of the constriction induced by 50 mM KCl
Description: Animals were obtained from RCC Ltd (Füllinsdorf, Switzerland). Female Wistar rats were euthanized by exposure to CO2. The tracheae were excised and rings from the lower segments were prepared. Rings of trachea were suspended in tissue baths (10 mL) containing Krebs-Henseleit buffer of the following composition (mM): NaCl 115; KCl 4.7; MgSO4 1.2; KH2PO4 1.5; CaCl2 2.5; NaHCO3 25; glucose 10. Bathing solution was maintained at 37° C. and aerated with 95% O2/5% CO2 (pH 7.4). A resting force of 2 g (20 mN) was applied to the ring preparation, and changes in force generation were measured using an isometric force recorder (EMKA Technologies Inc, Paris, France). Viability of rings was assessed by exposure to a depolarizing concentration of KCl (50 mM). Contraction of trachea was expressed as a percentage of the response to KCl.
All compounds were prepared as stock solutions of 0.3 mM in pure DMSO. Compounds were added to the bath (10 mL) in a volume of 33 μL to give a final bath concentration of DMSO of 0.33%.
Contraction of trachea was measured for 15 out of 30 exemplified compounds.

circulating lymphocytes = test: Assessment of in vivo efficacy: circulating lymphocytes after oral administration; design: species or system normotensive male Wistar rats; details: Rattus norvegicus, Lymphocyte; 6 h after oral administration of 10 mg/kg, male Wistar rats, compared to vehicle group; read-out: Lymphocyte counts
Description: The efficacy of the compounds of Formula (I) is assessed by measuring the circulating lymphocytes after oral administration of 3 to 30 mg/kg of a compound of Formula (I) to normotensive male Wistar rats. The animals are housed in climate-controlled conditions with a 12 h-light/dark cycle, and have free access to normal rat chow and drinking water. Blood is collected before and 3, 6 and 24 h after drug administration. Full blood is subjected to hematology using Advia Hematology system (Bayer Diagnostics, Zurich, Switzerland).
All data are presented as mean±SEM. Statistical analyses are performed by analysis of variance (ANOVA) using Statistica (StatSoft) and the Student-Newman-Keuls procedure for multiple comparisons. The null hypothesis is rejected when p<0.05.
Lymphocyte counts 6 h after oral administration have been measured for 23 out of 30 exemplified compounds and are in the range of −42% to −80% with an average of −63%.

human S1P1 receptor, sequence (P21453 whole entry): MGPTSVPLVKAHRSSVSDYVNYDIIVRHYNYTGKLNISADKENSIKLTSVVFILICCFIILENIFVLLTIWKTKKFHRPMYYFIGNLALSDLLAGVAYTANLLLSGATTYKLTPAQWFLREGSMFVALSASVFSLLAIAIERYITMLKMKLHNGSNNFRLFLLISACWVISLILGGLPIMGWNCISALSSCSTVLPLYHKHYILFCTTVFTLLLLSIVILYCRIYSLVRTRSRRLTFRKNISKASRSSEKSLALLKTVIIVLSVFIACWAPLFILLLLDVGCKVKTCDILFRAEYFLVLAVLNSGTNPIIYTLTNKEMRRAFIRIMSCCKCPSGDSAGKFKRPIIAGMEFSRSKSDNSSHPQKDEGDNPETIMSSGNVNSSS

| SMILES | EC50 (human S1P1 receptor) [nM] | potential to constrict rat trachea rings (comparison in words) (rat trachea rings) | % trachea constriction at 1 μM (rat trachea rings) [%] | change in vivo at 10 mg/kg (circulating lymphocytes) [%] |
| --- | --- | --- | --- | --- |
| CCc1cc(-c2noc(-c3cc(OC)nc(C4CCCC4)c3)n2)cc(C)c1OC[C@H](O)CO [Example 3, (R)-3-{4-[5-(2-Cyclopentyl-6-methoxy-pyridin-4-yl)-[1,2,4]oxadiazol-3-yl]-2-ethyl-6-methyl-phenoxy}-propane-1,2-diol] | 1 | same low potential to constrict rat trachea rings | <5 | -63 |
| CCc1cc(-c2noc(-c3cc(OC)nc(C4CCCCC4)c3)n2)cc(C)c1OC[C@@H](O)CO [Example 4, (S)-3-{4-[5-(2-Cyclohexyl-6-methoxy-pyridin-4-yl)-[1,2,4]oxadiazol-3-yl]-2-ethyl-6-methyl-phenoxy}-propane-1,2-diol] | 6.4 |  | <5 | -61 |
| CCS(=O)(=O)Nc1c(C)cc(-c2noc(-c3cc(OC)nc(C4CCCC4)c3)n2)cc1Cl [Example 5, Ethanesulfonic acid {2-chloro-4-[5-(2-cyclopentyl-6-methoxy-pyridin-4-yl)-[1,2,4]oxadiazol-3-yl]-6-methyl-phenyl}-amide] | 1.8 |  |  | -66 |
| CCc1cc(-c2noc(-c3cc(OC)nc(C4CCCC4)c3)n2)cc(C)c1OC[C@@H](O)CNC(=O)CO [Example 7, N-((2S)-3-{4-[5-(2-Cyclopentyl-6-methoxy-pyridin-4-yl)-[1,2,4]oxadiazol-3-yl]-2-ethyl-6-methyl-phenoxy}-2-hydroxy-propyl)-2-hydroxy-acetamide] | 0.6 | markedly reduced potential to constrict rat trachea rings | 50 | -65 |
| CCc1cc(-c2noc(-c3cc(OC)nc(C4CCCCC4)c3)n2)cc(C)c1OC[C@@H](O)CNC(=O)CO [Example 8, N-((2S)-3-{4-[5-(2-Cyclohexyl-6-methoxy-pyridin-4-yl)-[1,2,4]oxadiazol-3-yl]-2-ethyl-6-methyl-phenoxy}-2-hydroxy-propyl)-2-hydroxy-acetamide] | 10.8 |  | <5 | -58 |
| CCc1cc(-c2noc(-c3cc(OC)nc(C(CC)CC)c3)n2)cc(C)c1OC[C@@H](O)CN(C)C(=O)CO [Example 9, N-[(2S)-3-(2-Ethyl-4-{5-[2-(1-ethyl-propyl)-6-methoxy-pyridin-4-yl]-[1,2,4]oxadiazol-3-yl}-6-methyl-phenoxy)-2-hydroxy-propyl]-2-hydroxy-N-methyl-acetamide] | 17.8 |  |  |  |
| CCC(CC)c1cc(-c2nc(-c3cc(C)c(NS(C)(=O)=O)c(Cl)c3)no2)cc(OC)n1 [Example 11, N-(2-Chloro-4-{5-[2-(1-ethyl-propyl)-6-methoxy-pyridin-4-yl]-[1,2,4]oxadiazol-3-yl}-6-methyl-phenyl)-methanesulfonamide] | 1.2 |  |  | -74 |
| COc1cc(-c2nc(-c3cc(C)c(OC[C@@H](O)CNC(=O)CO)c(Cl)c3)no2)cc(C2CCCC2)n1 [Example 14, N-((2S)-3-{2-Chloro-4-[5-(2-cyclopentyl-6-methoxy-pyridin-4-yl)-[1,2,4]oxadiazol-3-yl]-6-methyl-phenoxy}-2-hydroxy-propyl)-2-hydroxy-acetamide] | 1.1 |  |  | -70 |
| CCc1cc(-c2noc(-c3cc(CCC(C)C)nc(OC)c3)n2)cc(C)c1OC[C@@H](O)CO [Example 15, (S)-3-(2-Ethyl-4-{5-[2-methoxy-6-(3-methyl-butyl)-pyridin-4-yl]-[1,2,4]oxadiazol-3-yl}-6-methyl-phenoxy)-propane-1,2-diol] | 7.5 |  |  |  |
| COc1cc(-c2nc(-c3cc(C)c(NS(C)(=O)=O)c(Cl)c3)no2)cc(C2CCCCC2)n1 [Example 17, N-{2-Chloro-4-[5-(2-cyclohexyl-6-methoxy-pyridin-4-yl)-[1,2,4]oxadiazol-3-yl]-6-methyl-phenyl}-methanesulfonamide] | 10.2 |  |  | -80 |
| CCc1cc(-c2noc(-c3cc(OC)nc(C4CCCCC4)c3)n2)cc(C)c1NS(C)(=O)=O [Example 20, N-{4-[5-(2-Cyclohexyl-6-methoxy-pyridin-4-yl)-[1,2,4]oxadiazol-3-yl]-2-ethyl-6-methyl-phenyl}-methanesulfonamide] | 4.2 |  |  | -67 |
| CCc1cc(-c2nc(-c3cc(OC)nc(C4CCCC4)c3)no2)cc(C)c1OC[C@H](O)CO [Example 22, (R)-3-{4-[3-(2-Cyclopentyl-6-methoxy-pyridin-4-yl)-[1,2,4]oxadiazol-5-yl]-2-ethyl-6-methyl-phenoxy}-propane-1,2-diol] | 1 |  |  |  |
| CCc1cc(-c2nc(-c3cc(OC)nc(C4CCCC4)c3)no2)cc(C)c1OC[C@@H](O)CNC(=O)CO [Example 23, N-((2S)-3-{4-[3-(2-Cyclopentyl-6-methoxy-pyridin-4-yl)-[1,2,4]oxadiazol-5-yl]-2-ethyl-6-methyl-phenoxy}-2-hydroxy-propyl)-2-hydroxy-acetamide] | 0.4 |  |  | -56 |
| CCc1cc(-c2nc(-c3cc(OC)nc(C4CCCC4)c3)no2)cc(C)c1OC[C@H](O)CNC(=O)CO [Example 24, N-((2R)-3-{4-[3-(2-Cyclopentyl-6-methoxy-pyridin-4-yl)-[1,2,4]oxadiazol-5-yl]-2-ethyl-6-methyl-phenoxy}-2-hydroxy-propyl)-2-hydroxy-acetamide] | 1.6 |  |  |  |
| CCc1cc(-c2nnc(-c3cc(OC)nc(C4CCCC4)c3)o2)cc(C)c1OC[C@H](O)CO [Example 26, (R)-3-{4-[5-(2-Cyclopentyl-6-methoxy-pyridin-4-yl)-[1,3,4]oxadiazol-2-yl]-2-ethyl-6-methyl-phenoxy}-propane-1,2-diol] | 4 |  |  |  |
| CCc1cc(-c2nnc(-c3cc(OC)nc(C4CCCC4)c3)o2)cc(C)c1OC[C@@H](O)CNC(=O)CO [Example 27, N-((2S)-3-{4-[5-(2-Cyclopentyl-6-methoxy-pyridin-4-yl)-[1,3,4]oxadiazol-2-yl]-2-ethyl-6-methyl-phenoxy}-2-hydroxy-propyl)-2-hydroxy-acetamide] | 1.7 |  |  | -54 |
| CCc1cc(-c2nnc(-c3cc(OC)nc(C4CCCC4)c3)o2)cc(C)c1OC[C@H](O)CNC(=O)CO [Example 28, N-((2R)-3-{4-[5-(2-Cyclopentyl-6-methoxy-pyridin-4-yl)-[1,3,4]oxadiazol-2-yl]-2-ethyl-6-methyl-phenoxy}-2-hydroxy-propyl)-2-hydroxy-acetamide] | 2.3 |  |  |  |
| COc1cc(-c2nc(-c3cc(C)c(OC[C@@H](O)CO)c(Cl)c3)no2)cc(C2CCCCC2)n1 [Example 29, (S)-3-{2-Chloro-4-[5-(2-cyclohexyl-6-methoxy-pyridin-4-yl)-[1,2,4]oxadiazol-3-yl]-6-methyl-phenoxy}-propane-1,2-diol] | 4 |  |  | -62 |
| CCc1cc(-c2noc(-c3cc(CCC(C)C)nc(OC)c3)n2)cc(C)c1NS(C)(=O)=O [Example 30, N-(2-Ethyl-4-(5-(2-isopentyl-6-methoxypyridin-4-yl)-1,2,4-oxadiazol-3-yl)-6-methylphenyl)methanesulfonamide] | 5.6 |  |  |  |
